Results published in patent publication US7795261B2, “Substituted 1-piperidin-4-yl-4-pyrrolidin-3-yl-piperazine derivatives and their use as neurokinin antagonists” (Janssen Pharmaceutica NV, priority 2002, dated 2010).

Assays:
NK1 = NK1 (Homo sapiens, UniProt P25103); assay: Signal transduction (ST), intracellular Ca++ (FLIPR), NK1 antagonistic activity; assay type: cell-based; settings: read-out: pIC50 NK1 (converted)
Method: (§1) This test evaluates in vitro functional NK1 antagonistic activity. For the measurements of intracellular Ca^++ concentrations the cells were grown on 96-well (black wall/transparent bottom) plates from Costar for 2 days until they reached confluence. The cells were loaded with 2 μM Fluo3 in DMEM containing 0.1% BSA and 2.5 mM probenecid for 1 h at 37° C. They were washed 3× with a Krebs buffer (140 mM NaCl, 1 mM MgCl2×6H2O, 5 mM KCl, 10 mM glucose, 5 mM HEPES; 1.25 mM CaCl2; pH 7.4) containing 2.5 mM probenecid and 0.1% BSA (Ca^++-buffer). The cells were preincubated with a concentration range of antagonists for 20 min at RT and Ca^++-signals after addition of the agonists were measured in a Fluorescence Image Plate Reader (FLIPR from Molecular Devices, Crawley, England). The peak of the Ca^++-transient was considered as the relevant signal and the mean values of corresponding wells were analysed as described below.
The sigmoidal dose response curves were analysed by computerised curve-fitting, using the GraphPad Program. […] For antagonist responses the IC50-value was calculated using non-linear regression. […]

NK3 = target: T1, NK3 (Homo sapiens, UniProt P29371); assay: Signal transduction (ST), intracellular Ca++ (FLIPR), NK3; assay type: cell-based; settings: read-out: pIC50 NK3 (converted)
T1 sequence (P29371 1-465): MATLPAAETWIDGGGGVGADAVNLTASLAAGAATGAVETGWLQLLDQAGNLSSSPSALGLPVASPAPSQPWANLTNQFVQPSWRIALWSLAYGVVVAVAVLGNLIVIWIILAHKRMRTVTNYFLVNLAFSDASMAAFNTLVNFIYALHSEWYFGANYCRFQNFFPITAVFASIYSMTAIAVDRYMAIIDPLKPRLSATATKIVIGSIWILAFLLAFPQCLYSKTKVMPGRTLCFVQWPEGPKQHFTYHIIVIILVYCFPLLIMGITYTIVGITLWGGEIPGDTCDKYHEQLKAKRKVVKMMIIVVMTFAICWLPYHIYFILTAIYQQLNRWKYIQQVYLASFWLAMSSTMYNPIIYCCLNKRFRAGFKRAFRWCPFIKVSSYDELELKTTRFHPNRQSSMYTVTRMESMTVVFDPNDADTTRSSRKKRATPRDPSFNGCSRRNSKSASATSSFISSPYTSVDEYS
Method: [The procedure below names another target; the source lists this target under the same test.] as §1
The sigmoidal dose response curves were analysed by computerised curve-fitting, using the GraphPad Program. […] For antagonist responses the IC50-value was calculated using non-linear regression.
The last columns indicates—without being limited therefore—for which the compounds might be most suitable. Of course, since for some neurokinin receptors no data was determined, it is obvious that these compounds might be attributed to another suitable use.

Chain of NK1 (P25103 whole entry): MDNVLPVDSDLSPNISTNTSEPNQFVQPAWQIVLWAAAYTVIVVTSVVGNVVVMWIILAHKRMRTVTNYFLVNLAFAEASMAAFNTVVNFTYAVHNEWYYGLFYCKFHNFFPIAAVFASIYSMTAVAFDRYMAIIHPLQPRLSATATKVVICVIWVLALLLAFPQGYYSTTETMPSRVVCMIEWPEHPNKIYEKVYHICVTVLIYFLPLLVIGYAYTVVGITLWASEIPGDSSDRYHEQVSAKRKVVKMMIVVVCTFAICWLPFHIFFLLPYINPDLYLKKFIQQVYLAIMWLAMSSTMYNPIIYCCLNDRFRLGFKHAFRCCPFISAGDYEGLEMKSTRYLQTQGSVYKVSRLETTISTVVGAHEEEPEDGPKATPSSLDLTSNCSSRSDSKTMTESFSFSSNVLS

Row | IC50 (NK1) | IC50 (NK3) | SMILES
1 | 0.0398 µM | 6.31 µM | CN(C)CC(=O)N1CCC(N2CCN([C@H]3CCN(C(=O)c4cc(C(F)(F)F)cc(C(F)(F)F)c4)[C@H](Cc4ccccc4)C3)CC2)C1 (stereo partly drawn) [Compound 202]
2 | 0.0251 µM | 0.158 µM | O=C(c1cc(C(F)(F)F)cc(C(F)(F)F)c1)N1CC[C@H](N2CCN(C3CCN(S(=O)(=O)c4cccs4)C3)CC2)C[C@H]1Cc1ccc(Cl)c(Cl)c1 (relative stereo) [Compound 163]
3 | 0.00794 µM | 3.16 µM | O=C(C1COC2CCCCC2O1)N1CCC(N2CCN([C@H]3CCN(C(=O)c4cc(C(F)(F)F)cc(C(F)(F)F)c4)[C@H](Cc4ccccc4)C3)CC2)C1 (stereo partly drawn) [Compound 99]
4 | 0.00316 µM | 1.58 µM | O=C(C1CCOC1)N1CCC(N2CCN(C3CCN(C(=O)c4cc(C(F)(F)F)cc(C(F)(F)F)c4)C(Cc4ccc(F)c(F)c4)C3)CC2)C1 (single isomer, unassigned) [Compound 227]
5 | 0.01 µM | 1.58 µM | CC1(C(=O)N2CCC(N3CCN([C@H]4CCN(C(=O)c5cc(C(F)(F)F)cc(C(F)(F)F)c5)[C@H](Cc5ccccc5)C4)CC3)C2)CC1 (stereo partly drawn) [Compound 73]
6 | 0.02 µM | 5.01 µM | O=C1CC[C@H](C(=O)N2CCC(N3CCN([C@H]4CCN(C(=O)c5cc(C(F)(F)F)cc(C(F)(F)F)c5)[C@H](Cc5ccccc5)C4)CC3)C2)O1 (stereo partly drawn) [Compound 387]
7 | 0.0631 µM | 3.98 µM | O=C(c1cc2ccccc2o1)N1CCC(N2CCN([C@H]3CCN(C(=O)c4cc(C(F)(F)F)cc(C(F)(F)F)c4)[C@H](Cc4ccccc4)C3)CC2)C1 (stereo partly drawn) [Compound 62]
8 | 0.0158 µM | 6.31 µM | CC(=O)OCC(=O)N1CCC(N2CCN(C3CCN(C(=O)c4cc(C(F)(F)F)cc(C(F)(F)F)c4)C(Cc4ccccc4)C3)CC2)C1 (stereo not drawn) [Compound 389]
9 | 0.0631 µM |  | O=C(c1cc(C(F)(F)F)cc(C(F)(F)F)c1)N1CCC(N2CCN(C3CCNC3)CC2)CC1Cc1ccccc1 (stereo not drawn) [Compound 2]
10 | 0.0631 µM | 3.98 µM | Cc1nnsc1C(=O)N1CCC(N2CCN([C@H]3CCN(C(=O)c4cc(C(F)(F)F)cc(C(F)(F)F)c4)[C@H](Cc4ccccc4)C3)CC2)C1 (stereo partly drawn) [Compound 51]
11 | 0.2 µM |  | O=C(c1ccccc1)N1CCC(N2CCN([C@@H]3CCN(C(=O)c4cc(C(F)(F)F)cc(C(F)(F)F)c4)[C@H](Cc4ccccc4)C3)CC2)C1 (stereo partly drawn) [Compound 136]
12 | 0.0316 µM |  | Cc1cc(C)cc(C(=O)N2CC[C@H](N3CCN(C4CCN(C(=O)c5ccoc5)C4)CC3)C[C@H]2Cc2ccccc2)c1 (stereo partly drawn) [Compound 85]
13 | 0.0794 µM | 6.31 µM | O=C(C(c1ccccc1)n1cc(Br)cn1)N1CCC(N2CCN([C@H]3CCN(C(=O)c4cc(C(F)(F)F)cc(C(F)(F)F)c4)[C@H](Cc4ccccc4)C3)CC2)C1 (stereo partly drawn) [Compound 111]
14 | 0.0126 µM | 0.501 µM | O=C(C1CC1)N1CCC(N2CCN(C3CCN(C(=O)c4cc(C(F)(F)F)cc(C(F)(F)F)c4)C(Cc4ccccc4)C3)CC2)C1 (single isomer, unassigned) [Compound 70]
15 | 0.0501 µM |  | O=C(c1cc(C(F)(F)F)cc(C(F)(F)F)c1)N1CCC(N2CCN(C3CCNC3)CC2)CC1Cc1ccc(F)c(F)c1 (single isomer, unassigned) [Compound 212]
16 | 0.02 µM | 5.01 µM | O=C1CC[C@@H](C(=O)N2CCC(N3CCN([C@H]4CCN(C(=O)c5cc(C(F)(F)F)cc(C(F)(F)F)c5)[C@H](Cc5ccccc5)C4)CC3)C2)O1 (stereo partly drawn) [Compound 386]
17 | 0.1 µM |  | O=C(c1cc(C(F)(F)F)cc(C(F)(F)F)c1)N1CCC(N2CCN(C3CCN(Cc4ccccc4)C3)CC2)CC1Cc1ccccc1 (stereo not drawn) [Compound 1]
18 | 0.0316 µM |  | CC(C)N/C(=C\[N+](=O)[O-])N1CCC(N2CCN(C3CCN(C(=O)c4cc(C(F)(F)F)cc(C(F)(F)F)c4)C(Cc4ccccc4)C3)CC2)C1 (stereo not drawn) [Compound 354]
19 | 0.126 µM |  | O=C(c1c(Cl)cccc1Cl)N1CC[C@H](N2CCN([C@@H]3CCN(C(=O)c4cc(C(F)(F)F)cc(C(F)(F)F)c4)[C@@H](Cc4ccc(Cl)c(Cl)c4)C3)CC2)C1 [Compound 246]
20 | 0.0398 µM |  | O=C(C1CCNC1)N1CCC(N2CCN([C@H]3CCN(C(=O)c4cc(C(F)(F)F)cc(C(F)(F)F)c4)[C@H](Cc4ccccc4)C3)CC2)C1 (stereo partly drawn) [Compound 235]
21 | 0.126 µM |  | O=C(c1cc(C(F)(F)F)cc(C(F)(F)F)c1)N1CC[C@H](N2CCN(C3CCNC3)CC2)C[C@@H]1Cc1ccccc1 (stereo partly drawn) [Compound 118]

Row | IC50 (NK1) | IC50 (NK3) | SMILES
22 | 0.02 µM |  | O=C(CN1CCCC1)N1CCC(N2CCN(C3CCN(C(=O)c4cc(C(F)(F)F)cc(C(F)(F)F)c4)C(Cc4ccccc4)C3)CC2)C1 (stereo not drawn) [Compound 196]
23 | 0.1 µM |  | COC(=O)CCN1CCC(N2CCN(C3CCN(C(=O)c4cc(C(F)(F)F)cc(C(F)(F)F)c4)C(Cc4ccccc4)C3)CC2)C1 (stereo not drawn) [Compound 80]
24 | 0.00501 µM |  | O=C(c1cc(C(F)(F)F)cc(C(F)(F)F)c1)N1CCC(N2CCN(C3CCN(CCCCO)C3)CC2)CC1Cc1ccc(Cl)c(Cl)c1 (stereo not drawn) [Compound 393]
25 | 0.0794 µM |  | O=C(c1cc(C(F)(F)F)cc(C(F)(F)F)c1)N1CCC(N2CCN(C3CCNC3)CC2)CC1Cc1ccc(Cl)c(Cl)c1 (stereo not drawn) [Compound 244]
26 | 0.126 µM |  | O=C([C@@H]1CCCN1)N1CCC(N2CCN([C@H]3CCN(C(=O)c4cc(C(F)(F)F)cc(C(F)(F)F)c4)[C@H](Cc4ccccc4)C3)CC2)C1 (stereo partly drawn) [Compound 144]
27 | 0.0631 µM |  | O=C(c1cc(C(F)(F)F)cc(C(F)(F)F)c1)N1CC[C@H](N2CCN([C@H]3CCNC3)CC2)C[C@H]1Cc1ccccc1 [Compound 148]
28 | 0.0251 µM |  | O=C(CN1CCOCC1)N1CCC(N2CCN([C@H]3CCN(C(=O)c4cc(C(F)(F)F)cc(C(F)(F)F)c4)[C@H](Cc4ccccc4)C3)CC2)C1 (stereo partly drawn) [Compound 197]
29 | 0.2 µM |  | CC(C)(C)OC(=O)N1CCC(N2CCN(C3CCN(C(=O)c4cc(C(F)(F)F)cc(C(F)(F)F)c4)C(Cc4ccc(Cl)c(Cl)c4)C3)CC2)C1 (single isomer, unassigned) [Compound 243]
30 | 0.0316 µM |  | CC(C)(C)C(=O)N1CC[C@H](N2CCN([C@@H]3CCN(C(=O)c4cc(C(F)(F)F)cc(C(F)(F)F)c4)[C@@H](Cc4ccc(Cl)c(Cl)c4)C3)CC2)C1 [Compound 247]
31 | 0.0158 µM |  | O=C(c1cc(C(F)(F)F)cc(C(F)(F)F)c1)N1CCC(N2CCN(C3CCNC3)CC2)CC1Cc1ccc(F)c(F)c1 (single isomer, unassigned) [Compound 225]
32 | 0.1 µM |  | CC(=O)N1CCC[C@H]1C(=O)N1CCC(N2CCN([C@H]3CCN(C(=O)c4cc(C(F)(F)F)cc(C(F)(F)F)c4)[C@H](Cc4ccccc4)C3)CC2)C1 (stereo partly drawn) [Compound 186]
33 | 0.0501 µM |  | O=C(CN1CCNCC1)N1CCC(N2CCN([C@H]3CCN(C(=O)c4cc(C(F)(F)F)cc(C(F)(F)F)c4)[C@H](Cc4ccccc4)C3)CC2)C1 (stereo partly drawn) [Compound 201]
34 | 0.0631 µM |  | CN1CCN(C(C(=O)N2CCC(N3CCN([C@H]4CCN(C(=O)c5cc(C(F)(F)F)cc(C(F)(F)F)c5)[C@H](Cc5ccccc5)C4)CC3)C2)c2ccccc2)CC1 (stereo partly drawn) [Compound 105]
35 | 0.0316 µM |  | O=C(C1CCNCC1)N1CCC(N2CCN(C3CCN(C(=O)c4cc(C(F)(F)F)cc(C(F)(F)F)c4)C(Cc4ccccc4)C3)CC2)C1 (stereo not drawn) [Compound 241]
36 | 0.0501 µM |  | O=C(C1CC1)N1CC[C@H](N2CCN([C@@H]3CCN(C(=O)c4cc(C(F)(F)F)cc(C(F)(F)F)c4)[C@@H](Cc4ccc(Cl)c(Cl)c4)C3)CC2)C1 [Compound 245]
37 | 0.02 µM |  | Cc1nccn1CC(=O)N1CCC(N2CCN(C3CCN(C(=O)c4cc(C(F)(F)F)cc(C(F)(F)F)c4)C(Cc4ccccc4)C3)CC2)C1 (stereo not drawn) [Compound 209]
38 | 0.0501 µM |  | CN(C)CCN1CCC[C@H]1C(=O)N1CCC(N2CCN([C@H]3CCN(C(=O)c4cc(C(F)(F)F)cc(C(F)(F)F)c4)[C@H](Cc4ccccc4)C3)CC2)C1 (stereo partly drawn) [Compound 185]
39 | 0.0398 µM |  | O=C(c1cc(C(F)(F)F)cc(C(F)(F)F)c1)N1CC[C@H](N2CCN([C@@H]3CCNC3)CC2)C[C@H]1Cc1ccccc1 [Compound 149]
40 | 0.02 µM |  | COCCOCC(=O)N1CCC(N2CCN([C@H]3CCN(C(=O)c4cc(C(F)(F)F)cc(C(F)(F)F)c4)[C@H](Cc4ccccc4)C3)CC2)C1 (stereo partly drawn) [Compound 390]
41 | 0.251 µM |  | O=C(C1CCOC1)N1CCC(N2CCN(C3CCN(C(=O)c4cc(C(F)(F)F)cc(C(F)(F)F)c4)C(Cc4ccccc4)C3)CC2)C1 (single isomer, unassigned) [Compound 129]
42 | 0.0316 µM |  | O=C(C1CCCNC1)N1CCC(N2CCN([C@H]3CCN(C(=O)c4cc(C(F)(F)F)cc(C(F)(F)F)c4)[C@H](Cc4ccccc4)C3)CC2)C1 (stereo partly drawn) [Compound 240]
